Assay results reported in US20120309821A1, “Use of epigallocatechin-3-gallate for immune regulation” (NATIONAL DEFENSE MEDICAL CENTER, priority 2011, published 2012).

How the values were obtained:
Format in all cases: in vivo, mouse
[1] = system: IgG immune complex deposition in the glomerulus; assay: Kidney IgG immune complex deposits by immunofluorescence; conditions: 120 mg/kg by gavage daily; week 34; disease control vs EGCG-treated mice
Experimental: Female NZB/W F1 mice were purchased from the Animal Center of the National Taiwan University (Taipei, Taiwan, ROC) and, at 12 weeks of age, were divided into two groups, one of which was given normal saline and served as the disease control, while the other was given 120 mg/kg body weight of EGCG (Ryss Lab, Inc., CA, USA) (this dose is a slight modification of those used in previous in vivo studies) by gavage daily till sacrificed at 34-weeks-old. 8-Week-old NZB/W F1 female mice (prior to onset of autoantibody production) were used as normal controls. Urine samples were collected in metabolic cages every 2 weeks and urine protein levels were measured, and serum samples were used to measure serum levels of blood urea nitrogen (BUN) and creatinine (Cr) as described previously (Ka, S. M. et al. Decoy receptor 3 ameliorates an autoimmune crescentic glomerulonephritis model in mice. J Am Soc Nephrol 18:2473-2485; 2007). All animal experiments were performed upon the ethical approval of the Institutional Animal Care and Use Committee of the National Defense Medical Center, Taiwan and according to the ethical rules in the NIH Guide for the Care and Use of Laboratory Animals. For immune complex detection, frozen renal tissues were prepared and incubated with fluorescein isothiocyanate (FITC)-conjugated goat anti-mouse IgG antibodies (Cappel, N.C., USA). […] Scoring of staining was recorded.

[2] = system: glutathione peroxidase (GPx); assay: GPx activity in renal cortex lysates; conditions: 120 mg/kg by gavage daily; week 34; compared with increase in disease control mice
Experimental: (§1) Female NZB/W F1 mice were purchased from the Animal Center of the National Taiwan University (Taipei, Taiwan, ROC) and, at 12 weeks of age, were divided into two groups, one of which was given normal saline and served as the disease control, while the other was given 120 mg/kg body weight of EGCG (Ryss Lab, Inc., CA, USA) (this dose is a slight modification of those used in previous in vivo studies) by gavage daily till sacrificed at 34-weeks-old. 8-Week-old NZB/W F1 female mice (prior to onset of autoantibody production) were used as normal controls. Urine samples were collected in metabolic cages every 2 weeks and urine protein levels were measured, and serum samples were used to measure serum levels of blood urea nitrogen (BUN) and creatinine (Cr) as described previously (Ka, S. M. et al. Decoy receptor 3 ameliorates an autoimmune crescentic glomerulonephritis model in mice. J Am Soc Nephrol 18:2473-2485; 2007). All animal experiments were performed upon the ethical approval of the Institutional Animal Care and Use Committee of the National Defense Medical Center, Taiwan and according to the ethical rules in the NIH Guide for the Care and Use of Laboratory Animals.

[3] = system: NZB/W F1 lupus-prone mice; assay: Urine protein time course in NZB/W F1 lupus-prone mice; conditions: 120 mg/kg EGCG by gavage daily from 12 weeks of age; weeks 28-34; vs disease control mice
Experimental: as §1

[4] = system: NZB/W F1 lupus-prone mice; assay: Serum BUN and creatinine (renal function) in NZB/W F1 mice; conditions: 120 mg/kg by gavage daily; week 34; vs disease control mice
Experimental: as §1

NF-κB p65 [5] = assay: Renal nuclear NF-κB p65 activation ELISA (TransAM); conditions: 120 mg/kg by gavage daily; week 34; increase seen in disease control
Experimental: as §1, with “All animal experiments were performed upon the ethical approval of the Institutional Animal Care and Use Committee of the National Defense Medical Center, Taiwan and according to the ethical rules in the NIH Guide for the Care and Use of Laboratory Animals.” left out
Nuclear protein from renal cortex was extracted using a Nuclear Extract Kit (Active Motif) according to the manufacturer's instructions and nuclear NF-κB p65 activation quantified using an ELISA-based TransAM NF-κB kit (Active Motif, Tokyo, Japan) according to the manufacturer's protocol by reading the absorbance on an ELISA plate reader (Bio-Tek, VT, USA) at 450 nm with a reference wavelength of 655 nm.

NF-κB p65 [6] = assay: IHC of NF-κB p65 in kidney; conditions: 120 mg/kg by gavage daily; week 34; increase seen in disease control
Experimental: as §1

[7] = system: CD3+CD69+ cells (activated T cells); assay: T cell activation in splenocytes by flow cytometry; conditions: 120 mg/kg by gavage daily; week 34; increase seen in disease control
Experimental: as §1, with “Animals. […]” for “Animals.”

NLRP3 mRNA = assay: Renal NLRP3 mRNA by real-time PCR; conditions: 120 mg/kg by gavage daily; week 34; increase seen in disease control
Experimental: as §1

Substance: Epigallocatechin-3-gallate [EGCG]
- IgG immune complex deposition in the glomerulus [1]: no significant difference
- GPx activity in the kidney [2]: even larger increase
- urine protein levels [3]: markedly inhibited
- serum levels of BUN [4]: significantly lower
- serum levels of Cr [4]: significantly lower
- nuclear NF-κB p65 levels (ELISA, renal nuclear protein extracts) (NF-κB p65 [5]): significantly inhibited
- NF-κB p65 activity in the kidney (IHC, nuclear location) (NF-κB p65 [6]): markedly inhibited
- percentage of CD3+CD69+ cells (activated T cells) in CD3+ splenocytes [7]: not inhibited
- levels of NLRP3 mRNA in kidney tissues (NLRP3 mRNA): inhibited
